Consider four compounds from publication PMC10455802, “A New Mild Method for Synthesis of Marine Alkaloid Fascaplysin and Its Therapeutically Promising Derivatives” (Marine Drugs, 2023).

For data set [1], the system named is PC-3 cells (human prostate cancer). In words: MTT assay, PC-3. The conditions noted are these: PC-3, 48 h, mean ± SD. In kind it is cell-based. An excerpt:
(§1) To investigate the effect of the tert-butyl group on anticancer activity and selectivity, we evaluated the cytotoxic activity of unsubstituted fascaplysin (1) and 6-tert-butylfascaplysin (4) in various cancer and non-cancer cell lines using the well-established MTT method (Table 4). The effects on the human prostate cancer cells PC3 and DU145 (hormone-independent cells), 22Rv1 (partially hormone-independent cells), and LNCaP (hormone-sensitive cells), as well as on the normal (non-cancerous) human cells PNT2, MRC-9, and HEK293, were investigated. The mean cytotoxicity of compound 4 towards either cancerous or non-cancerous cells decreased by ~2-fold compared to that of fascaplysin (1).
(§2) Cell lines PC-3, DU145, 22Rv1, and LNCaP (human prostate cancer), as well as PNT2 (human prostate non-cancer), were purchased from ATCC (Manassas, VA, USA). Human embryonic kidney cells HEK 293T and human fibroblasts MRC-9 cell lines were purchased from ECACC (Salisbury, UK). […] The cells were cultured at 37 °C as monolayers in a humidified atmosphere of 5% CO2. […]
(§3) The cytotoxic activity of the synthesized compounds was examined using an MTT assay, which was performed as previously reported. […] The absorbance of the DMSO solutions was measured using a TECAN Infinite F200PRO reader (Männedorf, Switzerland). IC50 were calculated with the GraphPad Prism v.9.1.1 (San Diego, CA, USA).
On the technique in general: Formazan colour is commonly taken as a measure of viable cells.

For data set [2], the system named is 22Rv1 cells (human prostate cancer). The experiment in a line: MTT assay, 22Rv1. In kind it is cell-based. The conditions noted are these: 22Rv1, 48 h, mean ± SD.
From the text: as §1, §2, §3

Data set [3] has as its system DU145 cells (human prostate cancer). The experiment in a line: MTT assay, DU145. It counts as cell-based. Particulars: DU-145, DU145, 48 h, mean ± SD.
From the text: as §1, §2, §3

The test system of data set [4] is LNCaP cells (human prostate cancer). The experiment in a line: MTT assay, LNCaP. It counts as cell-based. Particulars: 48 h, mean ± SD.
From the text: as §1, §2, §3

For data set [5], the system named is PNT2 cells (human prostate non-cancer). In words: MTT assay, PNT2. In kind it is cell-based. The conditions noted are these: PNT2, 48 h, mean ± SD.
From the text: as §1, §2, §3

The subject of data set [6] is MRC-9 cells (human fibroblasts). In words: MTT assay, MRC-9. Particulars: MRC9, MRC-9, 48 h, mean ± SD. In kind it is cell-based.
From the text: as §1, §2, §3

The subject of data set [7] is HEK293 cells (human embryonic kidney). The experiment in a line: MTT assay, HEK293. In kind it is cell-based. The conditions noted are these: HEK293, 48 h, mean ± SD.
From the text: as §1, §2, §3

In data set [8] the test system is human prostate cancer cells PC-3, 22Rv1, DU145, LNCaP. The experiment in a line: MTT assay, cancer cells (average). The conditions noted are these: mean of PC-3, 22Rv1, DU145, LNCaP. It counts as cell-based.
From the text: as §1, §2, §3

Data set [9] deals with normal (non-cancerous) human cells PNT2, MRC-9, HEK293. The experiment in a line: MTT assay, non-cancer cells (average). In kind it is cell-based. The conditions noted are these: mean of PNT2, MRC-9, HEK293.
From the text: as §1, §2, §3

Data set [10] concerns double-stranded calf thymus DNA. In words: Thiazole orange displacement (DNA intercalation assay). It counts as binding. Particulars: compared to fascaplysin (1). As to the method: As the intercalation into DNA is considered an important component of the biological mechanism of action of fascaplysin, we evaluated and compared this activity for the synthesized 6-tert-butylfascaplysin (4) and unsubstituted fascaplysin (1). The drug–DNA complex formation was assessed by a fluorescent intercalator displacement assay based on the detachment of the thiazole orange (TO) intercalating agent from the DNA duplex by the tested compounds. The half-maximal concentrations for the effective displacement of TO from the DNA complex were calculated and are presented in Figure 3. In this experiment, the well-established DNA-binding compound, propidium iodide (PI), was used as a positive control.
A thiazole displacement assay was performed to measure the DNA intercalation activity. A mixture, containing 1 μM of double-stranded calf thymus DNA (recalculated as a concentration of base pairs) and 2 μM of thiazole orange (TO) staining agent dissolved in H2O, was used. The fascaplysins were added at concentrations of 0.39–25 μM. The DMSO concentration in the samples was not more than 0.02%. […] TO fluorescence was measured 7 min post-incubation at room temperature using a multimodal plate reader TECAN Spark (Männedorf, Switzerland) at the excitation λ = 480 nm. Fluorescence was recorded at λ = 530 nm with the bandwidth 10 nm. […]

Data set [11] relates to human prostate cancer cells and normal (non-cancerous) human cells. The experiment in a line: MTT assay, cancer and non-cancer cell lines together (selectivity, overall cytotoxicity). It counts as cell-based.
From the text: as §1
Cell lines PC-3, DU145, 22Rv1, and LNCaP (human prostate cancer), as well as PNT2 (human prostate non-cancer), were purchased from ATCC (Manassas, VA, USA). Human embryonic kidney cells HEK 293T and human fibroblasts MRC-9 cell lines were purchased from ECACC (Salisbury, UK). […] The cells were cultured at 37 °C as monolayers in a humidified atmosphere of 5% CO2. The culture mediums used for cultivation and experiments: for PNT2, LNCaP, 22Rv1, PC-3, and DU145 cells—RPMI Glutamax^TM-I medium (gibco® Life Technologies^TM, Paisley, UK), supplemented with 10% FBS (gibco® Life Technologies^TM) and 1% penicillin/streptomycin (Invitrogen, Waltham, MA, USA); for MRC-9 and HEK 293 cells—DMEM GlutamaxTM-I medium (gibco® Life Technologies^TM), supplemented with 10% FBS and 1% penicillin/streptomycin.
The cytotoxic activity of the synthesized compounds was examined using an MTT assay, which was performed as previously reported. In brief, the cells were seeded in 96-well plates (6000 cells/well) and incubated overnight. The medium was replaced with fresh medium containing the tested drugs, and the cells were incubated for an additional 48 h. […] The absorbance of the DMSO solutions was measured using a TECAN Infinite F200PRO reader (Männedorf, Switzerland). IC50 were calculated with the GraphPad Prism v.9.1.1 (San Diego, CA, USA).

The format of data set [12] is physicochemical. The method, then: (§4) It was proposed based on the HRMS data, and its obtainment can be explained by the tendency towards oxidation of the fragment of p-hydroxyaminophenol of compound 26 (Scheme 6).
Method A. Freshly distilled BF3·OEt2 (0.02 mL, […]) in 2 mL of dry acetonitrile was slowly added to a stirred solution of 3 (5 mg, 0.01 mmol) and anhydrous NaI (2 mg, […]) in 5 mL of dry acetonitrile at 0 °C for 10–15 min. The mixture was stirred at 0 °C for 2 h and then for another 8 h at room temperature. The reaction was monitored by TLC. The formation of a rapidly oxidizing compound, presumably compound 27, with by-products was observed.
Method B. To 5 mg of 9-benzyloxyfascaplysin (0.01 mmol) in 5 mL of ethanol in a 10 mL flat-bottom flask, a catalytic amount of 10% palladium on carbon was added; this was sealed with a septum and left to stir under a hydrogen atmosphere on a magnetic stirrer at room temperature for 16 h. The reaction mixture changed color to green after 15 min. The progress of the reaction was monitored by TLC. The formation of a rapidly oxidizing compound, presumably compound 27, with by-products was observed.

Data set [13] in a line: Solubility observation of debenzylation product. It counts as physicochemical. Particulars: product of benzyl removal from 3, presumably quinoid compound.
From the text: as §4

Some results are limits rather than exact numbers.

As for `O=C1c2ccccc2-[n+]2ccc3c([nH]c4ccccc43)c21` [Compound 1, fascaplysin], the IC50 (as a rule, the concentration needed to halve the response being measured) in data set [1] is 766 ± 126 nM; in data set [2], 242 nM; in data set [3] it was 798 ± 54 nM; in data set [4] it was 409 ± 20 nM; in data set [5], 457 ± 75 nM; in data set [6], 890 ± 46 nM. Further, the IC50 in data set [7] is 458 ± 190 nM; in [8] it was 554 nM; in [9], 602 nM.

Take `CC(C)(C)c1cc2c([nH]c3ccccc32)c2[n+]1-c1ccccc1C2=O` [Compound 4, 6-tert-butylfascaplysin]: in [10], the “fold less effective at displacing TO from the fluorescent complex with DNA than 1” value is reported as 7 fold. For the same compound, the IC50 came to 1100 ± 76 nM in data set [1]; 580 ± 73 nM in data set [2]; 1730 ± 172 nM in data set [3]; 1330 ± 240 nM in data set [4]; 1820 ± 448 nM in data set [5]; 1370 ± 424 nM in data set [6]. Further, the IC50 is 348 ± 90 nM in data set [7]; 1190 nM in data set [8]; 1180 nM in data set [9]; not above 2000 nM in data set [11] (Homo sapiens, all tested cancer and non-cancer cell lines, read-out: IC50 in either cell line). In addition, the “Selectivity index (SI)” value in [11] (SI = mean [IC50 non-cancer cells]/mean [IC50 cancer cells]) is reported as 0.99. Also, the “fold decrease of mean cytotoxicity compared to fascaplysin (1)” value in data set [11] (towards either cancerous or non-cancerous cells) is ~ 2 fold.

In the case of `O=C1c2ccccc2-[n+]2ccc3c([nH]c4ccc(O)cc43)c21` [Compound 26, 9-hydroxyfascaplysin], the chemical stability result in [12] is given as “chemically highly unstable”.

Turning to `O=c1ccc2nc3c(cc[n+]4c5ccccc5c(=O)c34)c-2c1` [Compound 27], the solubility entry in data set [13] is reported as “extremely poorly soluble”.
